Values of other authors, collected in paper PMC7984856 (European journal of medicinal chemistry, 2021).

Test system: catalepsy in rats
Conditions: previous in vivo behavioral studies, ref [29]

Fc1ccc(CCCCN2CCN(c3ccccn3)CC2)cc1 [Compound 2, 1-(4-(4-fluorophenyl)butyl)-4-(pyridin-2-yl)piperazine]
propensity to cause catalepsy: low propensity to cause catalepsy
